Measured values reported in article PMC4608799, “Structural and Functional Analysis of Murine Polyomavirus Capsid Proteins Establish the Determinants of Ligand Recognition and Pathogenicity” (PLoS Pathogens, 2015).

Legend:
[1] = target: T1, RA VP1 (Mouse polyomavirus (strain p16 small-plaque), UniProt P49302); assay: concentration-dependent crystal soaking, electron density quantified; format: binding; conditions: 1.5 M ammonium sulfate (competes with the Neu5Ac carboxylate), 20 C crystals, 30 min soak
T1 construct: residues 33-316, homopentamer; N-terminal His-tag cut by thrombin leaving GSHM; pET15b, E. coli BL21

[2] = target: T2, PTA VP1 (Alphapolyomavirus muris, UniProt A0A247D727); assay: X-ray crystal structure of complex; conditions: receptor-binding pocket
T2 construct: residues 33-316, homopentamer; N-terminal His-tag cut by thrombin leaving GSHM; pET15b, E. coli BL21

`CC(=O)N[C@H]1[C@H](O[C@H]2[C@@H](O)[C@@H](CO)O[C@@H](O[C@H]3[C@H](O)[C@@H](O)C(O)O[C@@H]3CO)[C@@H]2O)O[C@H](CO[C@]2(C(=O)O)C[C@H](O)[C@@H](NC(C)=O)[C@H]([C@H](O)[C@H](O)CO)O2)[C@@H](O)[C@@H]1O[C@@H]1O[C@H](CO)[C@H](O)[C@H](O[C@]2(C(=O)O)C[C@H](O)[C@@H](NC(C)=O)[C@H]([C@H](O)[C@H](O)CO)O2)[C@H]1O` (some centres unmarked) [DSLNT] was tested, and the “concentration-dependent crystal soaking, electron density quantified” value [1] was “Electron density of GT1a, GD1a, and DSLNT in RA VP1”.
In the case of `CC(=O)N[C@H]1[C@H]([C@H](O)[C@H](O)CO)O[C@@](O[C@H](CO)[C@@H](O)[C@@H]2O[C@@](O[C@H]3[C@@H](O)[C@@H](CO)O[C@@H](O[C@H]4[C@H](O)[C@@H](O)C(O)O[C@@H]4CO)[C@@H]3O)(C(=O)O)C[C@H](O)[C@H]2NC(C)=O)(C(=O)O)C[C@@H]1O` (some centres unmarked) [GD3, glycan portion of GD3], the “X-ray crystal structure of complex” value [2] is reported as “the crystal structure of PTA with the glycan portion of GD3 shows an identical binding mechanism”.
